In the experiment the target is T1, GlyT1 transporter (Homo sapiens, UniProt P48067).
T1 construct: endogenously expressing the GlyT1 transporter; host or cells: SK-N-MC human neuroblastoma cells
T1 sequence (P48067 1-706): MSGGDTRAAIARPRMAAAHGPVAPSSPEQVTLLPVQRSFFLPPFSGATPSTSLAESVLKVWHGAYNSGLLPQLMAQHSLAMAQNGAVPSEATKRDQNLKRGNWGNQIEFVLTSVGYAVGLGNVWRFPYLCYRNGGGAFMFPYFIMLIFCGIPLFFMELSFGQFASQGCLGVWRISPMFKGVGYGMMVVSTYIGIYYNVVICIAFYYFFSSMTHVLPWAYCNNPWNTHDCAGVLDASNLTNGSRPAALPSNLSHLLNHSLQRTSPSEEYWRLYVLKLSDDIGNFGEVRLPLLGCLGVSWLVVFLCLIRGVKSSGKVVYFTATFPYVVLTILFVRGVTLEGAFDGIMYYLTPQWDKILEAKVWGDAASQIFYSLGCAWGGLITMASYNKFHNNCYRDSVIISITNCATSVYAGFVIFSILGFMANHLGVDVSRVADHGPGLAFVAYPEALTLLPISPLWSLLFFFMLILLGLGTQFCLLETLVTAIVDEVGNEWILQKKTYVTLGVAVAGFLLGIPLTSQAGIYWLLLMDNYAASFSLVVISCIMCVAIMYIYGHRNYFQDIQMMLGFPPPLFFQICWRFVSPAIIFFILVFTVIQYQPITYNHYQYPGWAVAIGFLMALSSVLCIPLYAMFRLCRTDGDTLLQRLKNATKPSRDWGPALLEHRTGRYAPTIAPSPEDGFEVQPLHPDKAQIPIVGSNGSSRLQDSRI
Kind of experiment: GlyT1 assay: 3H-glycine uptake into SK-N-MC cells (Cytostar-T format). The class given is cell-based. Particulars: glycine uptake in human SK-N-MC cells endogenously expressing GlyT1; 500 nM glycine, 1% DMSO, signal recorded over 60 min. Summed up:
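Uptake slopes, measured over 60 min from the linear kinetic range, give IC50 from 8 compound concentrations, with 10 μM RG-1678 setting background. Substrate is 500 nM glycine (250 nM ³H, 250 nM unlabelled) in HBSS/5 mM alanine, 1% DMSO, after roughly 5-10 min compound preincubation. Cells: confluent SK-N-MC endogenously expressing human GlyT1.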
In general, IC50 refers to the midpoint of a concentration-inhibition curve. Read a high IC50 as weaker potency. Turning to `C[C@H](Oc1ccc(S(C)(=O)=O)cc1C(=O)N1CC2CC2(c2nccc(C(F)(F)F)n2)C1)C(F)(F)F` (single isomer, unassigned) [Example 17, [5-Methanesulfonyl-2-(2,2,2-trifluoro-1-methyl-ethoxy)-phenyl]-[1-(4-trifluoromethyl-pyrimidin-2-yl)-3-aza-bicyclo[3.1.0]hex-3-yl]-methanone], half-maximal inhibition (IC50) required 157 nM.
As to `C[C@@H](Oc1ccc(S(C)(=O)=O)cc1C(=O)N1CC2CC2(c2nccc(C(F)(F)F)n2)C1)C(F)(F)F` (single isomer, unassigned) [Example 18, [5-Methanesulfonyl-2-(2,2,2-trifluoro-1-methyl-ethoxy)-phenyl]-[1-(4-trifluoromethyl-pyrimidin-2-yl)-3-aza-bicyclo[3.1.0]hex-3-yl]-methanone], the half-maximal inhibitory concentration (IC50) turned out to be 106 nM.
In the case of `C[C@@H](Oc1ccc(S(C)(=O)=O)cc1C(=O)N1CC2CC2(c2nccc(C(F)(F)F)n2)C1)C(F)(F)F` (single isomer, unassigned) [Example 19, [5-Methanesulfonyl-2-(2,2,2-trifluoro-1-methyl-ethoxy)-phenyl]-[1-(4-trifluoromethyl-pyrimidin-2-yl)-3-aza-bicyclo[3.1.0]hex-3-yl]-methanone], it took 5 nM to reach half-maximal inhibition (IC50).
`Cc1cnc(C23CC2CN(C(=O)c2cc(S(C)(=O)=O)ccc2O[C@@H](C)C(F)(F)F)C3)o1` (single isomer, unassigned) [Example 22, [5-Methanesulfonyl-2-(2,2,2-trifluoro-1-methyl-ethoxy)-phenyl]-[1-(5-methyl-oxazol-2-yl)-3-aza-bicyclo[3.1.0]hex-3-yl]-methanone] returned an IC50 of 5 nM.
In the case of `Cc1cnc(C23CC2CN(C(=O)c2cc(S(C)(=O)=O)ccc2O[C@@H](C)C(F)(F)F)C3)o1` (single isomer, unassigned) [Example 23, [5-Methanesulfonyl-2-(2,2,2-trifluoro-1-methyl-ethoxy)-phenyl]-[1-(5-methyl-oxazol-2-yl)-3-aza-bicyclo[3.1.0]hex-3-yl]-methanone], the IC50 is 181 nM.
To `C[C@H](Oc1ccc(S(C)(=O)=O)cc1C(=O)N1CC2CC2(c2csc(C(F)(F)F)n2)C1)C(F)(F)F` (single isomer, unassigned) [Example 27, [5-Methanesulfonyl-2-(2,2,2-trifluoro-1-methyl-ethoxy)-phenyl]-[1-(2-trifluoromethyl-thiazol-4-yl)-3-aza-bicyclo[3.1.0]hex-3-yl]-methanone] belongs 5 nM; to `C[C@H](Oc1ccc(S(C)(=O)=O)cc1C(=O)N1CC2CC2(c2csc(C(F)(F)F)n2)C1)C(F)(F)F` (single isomer, unassigned) [Example 28, [5-Methanesulfonyl-2-(2,2,2-trifluoro-1-methyl-ethoxy)-phenyl]-[1-(2-trifluoromethyl-thiazol-4-yl)-3-aza-bicyclo[3.1.0]hex-3-yl]-methanone], 1440 nM; to `C[C@@H](Oc1ccc(S(C)(=O)=O)cc1C(=O)N1CC2CC2(c2csc(C(F)(F)F)n2)C1)C(F)(F)F` (single isomer, unassigned) [Example 30, [5-Methanesulfonyl-2-(2,2,2-trifluoro-1-methyl-ethoxy)-phenyl]-[1-(2-trifluoromethyl-thiazol-4-yl)-3-aza-bicyclo[3.1.0]hex-3-yl]-methanone], 5 nM.
The same measure for `C[C@@H](Oc1ccc(S(C)(=O)=O)cc1C(=O)N1CC2CC2(c2csc(C(F)(F)F)n2)C1)C(F)(F)F` (single isomer, unassigned) [Example 31, [5-Methanesulfonyl-2-(2,2,2-trifluoro-1-methyl-ethoxy)-phenyl]-[1-(2-trifluoromethyl-thiazol-4-yl)-3-aza-bicyclo[3.1.0]hex-3-yl]-methanone]: 1010 nM.
To `Cc1nc(C23CC2CN(C(=O)c2cc(S(C)(=O)=O)ccc2O[C@H](C)C(F)(F)F)C3)no1` (single isomer, unassigned) [Example 42, [5-Methanesulfonyl-2-(2,2,2-trifluoro-1-methyl-ethoxy)-phenyl]-[1-(5-methyl-[1,2,4]oxadiazol-3-yl)-3-aza-bicyclo[3.1.0]hex-3-yl]-methanone] belongs 6 nM.
Consider `Cc1nc(C23CC2CN(C(=O)c2cc(S(C)(=O)=O)ccc2O[C@H](C)C(F)(F)F)C3)no1` (single isomer, unassigned) [Example 43, [5-Methanesulfonyl-2-(2,2,2-trifluoro-1-methyl-ethoxy)-phenyl]-[1-(5-methyl-[1,2,4]oxadiazol-3-yl)-3-aza-bicyclo[3.1.0]hex-3-yl]-methanone], for which half-maximal inhibition (IC50) required 251 nM.
Compound `C[C@@H](Oc1ccc(S(C)(=O)=O)cc1C(=O)N1CC2CC2(c2noc(C3CC3)n2)C1)C(F)(F)F` (single isomer, unassigned) [Example 44, [1-(5-Cyclopropyl-[1,2,4]oxadiazol-3-yl)-3-aza-bicyclo[3.1.0]hex-3-yl]-[5-methanesulfonyl-2-(2,2,2-trifluoro-1-methyl-ethoxy)-phenyl]-methanone] had an IC50 of 397 nM.
Compound `C[C@@H](Oc1ccc(S(C)(=O)=O)cc1C(=O)N1CC2CC2(c2noc(C3CC3)n2)C1)C(F)(F)F` (single isomer, unassigned) [Example 45, [1-(5-Cyclopropyl-[1,2,4]oxadiazol-3-yl)-3-aza-bicyclo[3.1.0]hex-3-yl]-[5-methanesulfonyl-2-(2,2,2-trifluoro-1-methyl-ethoxy)-phenyl]-methanone] came in with a half-inhibitory concentration (IC50) of 2 nM.
The same measure for `C[C@H](Oc1ccc(S(C)(=O)=O)cc1C(=O)N1CC2CC2(c2cc(C(F)(F)F)on2)C1)C(F)(F)F` (single isomer, unassigned) [Example 47, [5-Methanesulfonyl-2-(2,2,2-trifluoro-1-methyl-ethoxy)-phenyl]-[1-(5-trifluoromethyl-isoxazol-3-yl)-3-aza-bicyclo[3.1.0]hex-3-yl]-methanone]: 7 nM.
Consider `C[C@H](Oc1ccc(S(C)(=O)=O)cc1C(=O)N1CC2CC2(c2cc(C(F)(F)F)on2)C1)C(F)(F)F` (single isomer, unassigned) [Example 48, [5-Methanesulfonyl-2-(2,2,2-trifluoro-1-methyl-ethoxy)-phenyl]-[1-(5-trifluoromethyl-isoxazol-3-yl)-3-aza-bicyclo[3.1.0]hex-3-yl]-methanone], for which the IC50 stood at 886 nM.
To `C[C@@H](Oc1ccc(S(C)(=O)=O)cc1C(=O)N1CC2CC2(c2cc(C(F)(F)F)on2)C1)C(F)(F)F` (single isomer, unassigned) [Example 50, [5-Methanesulfonyl-2-(2,2,2-trifluoro-1-methyl-ethoxy)-phenyl]-[1-(5-trifluoromethyl-isoxazol-3-yl)-3-aza-bicyclo[3.1.0]hex-3-yl]-methanone] belongs 6 nM; to `C[C@@H](Oc1ccc(S(C)(=O)=O)cc1C(=O)N1CC2CC2(c2cc(C(F)(F)F)on2)C1)C(F)(F)F` (single isomer, unassigned) [Example 51, [5-Methanesulfonyl-2-(2,2,2-trifluoro-1-methyl-ethoxy)-phenyl]-[1-(5-trifluoromethyl-isoxazol-3-yl)-3-aza-bicyclo[3.1.0]hex-3-yl]-methanone], 461 nM.
In turn, `C[C@H](Oc1ccc(S(C)(=O)=O)cc1C(=O)N1CC2CC2(c2cccc(C(F)(F)F)n2)C1)C(F)(F)F` (single isomer, unassigned) [Example 55, [5-Methanesulfonyl-2-(2,2,2-trifluoro-1-methyl-ethoxy)-phenyl]-[1-(6-trifluoromethyl-pyridin-2-yl)-3-aza-bicyclo[3.1.0]hex-3-yl]-methanone] returned a concentration for half-maximal inhibition (IC50) of 22 nM.
In the case of `C[C@H](Oc1ccc(S(C)(=O)=O)cc1C(=O)N1CC2CC2(c2cccc(C(F)(F)F)n2)C1)C(F)(F)F` (single isomer, unassigned) [Example 56, [5-Methanesulfonyl-2-(2,2,2-trifluoro-1-methyl-ethoxy)-phenyl]-[1-(6-trifluoromethyl-pyridin-2-yl)-3-aza-bicyclo[3.1.0]hex-3-yl]-methanone], the IC50 stood at 233 nM.
In turn, `C[C@H](Oc1ccc(S(C)(=O)=O)cc1C(=O)N1CC2CC2(c2noc(C3CC(F)(F)C3)n2)C1)C(F)(F)F` (single isomer, unassigned) [Example 59] came in with a concentration for half-maximal inhibition (IC50) of 8 nM.
`C[C@H](Oc1ccc(S(C)(=O)=O)cc1C(=O)N1CC2CC2(c2noc(C3CC(F)(F)C3)n2)C1)C(F)(F)F` (single isomer, unassigned) [Example 60]: half-maximal inhibition (IC50) required 372 nM.
For the compound `C[C@H](Oc1ccc(S(C)(=O)=O)cc1C(=O)N1CC2CC2(c2noc(C3(C(F)(F)F)CC3)n2)C1)C(F)(F)F` (single isomer, unassigned) [Example 66, [5-Methanesulfonyl-2-(2,2,2-trifluoro-1-methyl-ethoxy)-phenyl]-{1-[5-(1-trifluoromethyl-cyclopropyl)-[1,2,4]oxadiazol-3-yl]-3-aza-bicyclo[3.1.0]hex-3-yl}-methanone], the IC50 stood at 4 nM.

The values above are taken from patent publication US9012489B2, “Phenyl-3-aza-bicyclo[3.1.0]hex-3-yl-methanones and the use thereof as medicament” (Boehringer Ingelheim International GmbH, priority 2011, dated 2015).
